Source: ChEMBL document CHEMBL4219034, “Synthesis, antimicrobial activity, structure-activity relationship and cytotoxic studies of a new series of functionalized (Z)-3-(2-oxo-2-substituted ethylidene)-3,4-dihydro-2H-benzo[b][1,4]oxazin-2-ones” (Bioorg Med Chem Lett, 2017)
In brackets after ≈: the same amount, converted by molar mass. Activity calls are given as the source filed them. The rule behind the calls is not given here.

Assays:
Fusarium oxysporum [1] = experiment: Antifungal activity against Fusarium oxysporum ATCC 62506 at 100 ug/ml incubated for 72 hrs by agar disc diffusion assay; format: functional; conditions: ATCC 62506, 72 h, read-out: IZ
Aspergillus niger [2] = experiment: Antifungal activity against Aspergillus niger ATCC 9029 incubated for 24 hrs by serial dilution method; format: functional
[3] = Cytotoxicity against mouse NIH/3T3 cells assessed as cell viability at 25 ug/ml after 72 hrs by MTT assay relative to control; format: cell-based, NIH3T3; conditions: read-out: Activity
Aspergillus niger [4] = experiment: Antifungal activity against Aspergillus niger ATCC 9029 at 100 ug/ml incubated for 72 hrs by agar disc diffusion assay; format: functional; conditions: for zone of inhibition at 100 µg/mL: ATCC 9029, 72 h, read-out: IZ
[5] = Cytotoxicity against mouse NIH/3T3 cells assessed as cell viability at 50 ug/ml after 72 hrs by MTT assay relative to control; format: cell-based, NIH3T3; conditions: read-out: Activity
Staphylococcus aureus [6] = experiment: Antibacterial activity against Staphylococcus aureus MTCC 3381 at 100 ug/ml incubated for 12 hrs by agar disc diffusion assay; format: functional; conditions: MTCC 3381, 12 h, read-out: IZ
Streptomyces griseus [7] = experiment: Antibacterial activity against Streptomyces griseus MTCC 4734 incubated for 24 hrs by serial dilution method; format: functional
Bacillus subtilis [8] = experiment: Antibacterial activity against Bacillus subtilis MTCC 10619 at 100 ug/ml incubated for 12 hrs by agar disc diffusion assay; format: functional; conditions: for zone of inhibition at 100 µg/mL: MTCC 10619, 12 h, read-out: IZ
Trichoderma reesei [9] = experiment: Antifungal activity against Trichoderma reesei ATCC 13631 incubated for 24 hrs by serial dilution method; format: functional
Trichoderma reesei [10] = experiment: Antifungal activity against Trichoderma reesei ATCC 13631 at 100 ug/ml incubated for 72 hrs by agar disc diffusion assay; format: functional; conditions: for zone of inhibition at 100 µg/mL: ATCC 13631, 72 h, read-out: IZ
Escherichia coli [11] = experiment: Antibacterial activity against Escherichia coli MTCC 443 at 100 ug/ml incubated for 12 hrs by agar disc diffusion assay; format: functional; conditions: MTCC 443, 12 h, read-out: IZ
[12] = Cytotoxicity against mouse NIH/3T3 cells assessed as cell viability at 100 ug/ml after 72 hrs by MTT assay relative to control; format: cell-based, NIH3T3; conditions: read-out: Activity
[13] = Cytotoxicity against mouse NIH/3T3 cells assessed as cell viability at 250 ug/ml after 72 hrs by MTT assay relative to control; format: cell-based, NIH3T3; conditions: read-out: Activity
Staphylococcus aureus [14] = experiment: Potency index, ratio of ampicillin MIC to compound MIC for Staphylococcus aureus MTCC 3381 by serial dilution method; format: functional
Fusarium oxysporum [15] = experiment: Antifungal activity against Fusarium oxysporum ATCC 62506 incubated for 24 hrs by serial dilution method; format: functional; conditions: ATCC 62506, 24 h
Escherichia coli [16] = experiment: Antibacterial activity against Escherichia coli MTCC 443 incubated for 24 hrs by serial dilution method; format: functional; conditions: MTCC 443, 24 h
Talaromyces funiculosus [17] = experiment: Antifungal activity against Penicillium funiculosum ATCC 11797 incubated for 24 hrs by serial dilution method; format: functional
Streptomyces griseus [18] = experiment: Antibacterial activity against Streptomyces griseus MTCC 4734 at 100 ug/ml incubated for 12 hrs by agar disc diffusion assay; format: functional; conditions: for zone of inhibition at 100 µg/mL: MTCC 4734, 12 h, read-out: IZ
Staphylococcus aureus [19] = experiment: Antibacterial activity against Staphylococcus aureus MTCC 3381 incubated for 24 hrs by serial dilution method; format: functional; conditions: MTCC 3381, 24 h
Talaromyces funiculosus [20] = experiment: Antifungal activity against Penicillium funiculosum ATCC 11797 at 100 ug/ml incubated for 72 hrs by agar disc diffusion assay; format: functional; conditions: for zone of inhibition at 100 µg/mL: ATCC 11797, 72 h, read-out: IZ
Bacillus subtilis [21] = experiment: Antibacterial activity against Bacillus subtilis MTCC 10619 incubated for 24 hrs by serial dilution method; format: functional
Bacillus subtilis [22] = experiment: Potency index, ratio of ampicillin MIC to compound MIC for Bacillus subtilis MTCC 10619 by serial dilution method; format: functional
Bacillus subtilis [23] = experiment: Potency index, ratio of chloramphenicol MIC to compound MIC for Bacillus subtilis MTCC 10619 by serial dilution method; format: functional

For `O=C1Oc2ccc([N+](=O)[O-])cc2N/C1=C\C(=O)c1ccc(-c2ccccc2)cc1`, the zone of inhibition at 100 µg/mL (Fusarium oxysporum [1]) was 14 mm, the MIC (Aspergillus niger [2]) was “inactive” and the viability at 72 h, 25 ug/ml [3] was 91%. For the same compound, the “inhibition zone (IZ)” value (Aspergillus niger [4]) was “inactive”, the viability at 72 h, 50 ug/ml [5] was 83.5% and the zone of inhibition at 100 µg/mL (Staphylococcus aureus [6]) was 20 mm. It also gave an MIC (Streptomyces griseus [7]; MTCC 4734, 24 h) of 12.5 µg/mL (≈ 32.4 µM), a zone of inhibition at 100 µg/mL (Bacillus subtilis [8]) of 18 mm and an MIC (Trichoderma reesei [9]; ATCC 13631, 24 h) of 100 µg/mL (≈ 259 µM). The zone of inhibition at 100 µg/mL (Trichoderma reesei [10]) was 10 mm, the zone of inhibition at 100 µg/mL (Escherichia coli [11]) was 16 mm and the viability at 72 h, 100 ug/ml [12] was 77.6%. The viability at 72 h, 250 ug/ml [13] was 77.1%, the Ratio (Staphylococcus aureus [14]) was 2 and the MIC (Fusarium oxysporum [15]) was 50 µg/mL (≈ 129 µM). It also gave an MIC (Escherichia coli [16]) of 25 µg/mL (≈ 64.7 µM), an MIC (Talaromyces funiculosus [17]; ATCC 11797, 24 h) of 25 µg/mL (≈ 64.7 µM) and a zone of inhibition at 100 µg/mL (Streptomyces griseus [18]) of 20 mm. The MIC (Staphylococcus aureus [19]) was 6.25 µg/mL (≈ 16.2 µM), the zone of inhibition at 100 µg/mL (Talaromyces funiculosus [20]) was 16 mm and the MIC (Bacillus subtilis [21]; MTCC 10619, 24 h) was 25 µg/mL (≈ 64.7 µM).

`O=C1Oc2cc([N+](=O)[O-])ccc2N/C1=C\C(=O)c1ccc(C2CCCCC2)cc1` showed a zone of inhibition at 100 µg/mL (Fusarium oxysporum [1]) of 20 mm, an MIC (Aspergillus niger [2]; ATCC 9029, 24 h) of 100 µg/mL (≈ 255 µM) and a viability at 72 h, 25 ug/ml [3] of 97.8%. The zone of inhibition at 100 µg/mL (Aspergillus niger [4]) was 8 mm, the viability at 72 h, 50 ug/ml [5] was 89% and the zone of inhibition at 100 µg/mL (Staphylococcus aureus [6]) was 14 mm. It also gave an MIC (Streptomyces griseus [7]; MTCC 4734, 24 h) of 50 µg/mL (≈ 127 µM), a zone of inhibition at 100 µg/mL (Bacillus subtilis [8]) of 24 mm and an MIC (Trichoderma reesei [9]; ATCC 13631, 24 h) of 25 µg/mL (≈ 63.7 µM). The zone of inhibition at 100 µg/mL (Trichoderma reesei [10]) was 12 mm, the zone of inhibition at 100 µg/mL (Escherichia coli [11]) was 18 mm and the Ratio (Bacillus subtilis [22]) was 8. The viability at 72 h, 100 ug/ml [12] was 84.6%, the viability at 72 h, 250 ug/ml [13] was 78.3% and the MIC (Fusarium oxysporum [15]) was 25 µg/mL (≈ 63.7 µM). It also gave a Ratio (Bacillus subtilis [23]) of 2, an MIC (Escherichia coli [16]) of 25 µg/mL (≈ 63.7 µM) and an MIC (Talaromyces funiculosus [17]; ATCC 11797, 24 h) of 100 µg/mL (≈ 255 µM). The zone of inhibition at 100 µg/mL (Streptomyces griseus [18]) was 10 mm, the MIC (Staphylococcus aureus [19]) was 12.5 µg/mL (≈ 31.9 µM) and the zone of inhibition at 100 µg/mL (Talaromyces funiculosus [20]) was 14 mm. It also gave an MIC (Bacillus subtilis [21]; MTCC 10619, 24 h) of 3.12 µg/mL (≈ 7.95 µM).

With `O=C1Oc2ccc([N+](=O)[O-])cc2N/C1=C\C(=O)C1CC1` the zone of inhibition at 100 µg/mL (Fusarium oxysporum [1]) was 22 mm, the MIC (Aspergillus niger [2]; ATCC 9029, 24 h) was 100 µg/mL (≈ 365 µM) and the viability at 72 h, 25 ug/ml [3] was 93.2%. It also gave a zone of inhibition at 100 µg/mL (Aspergillus niger [4]) of 6 mm, a viability at 72 h, 50 ug/ml [5] of 86% and a zone of inhibition at 100 µg/mL (Staphylococcus aureus [6]) of 6 mm. For the same compound, the MIC (Streptomyces griseus [7]; MTCC 4734, 24 h) was 6.25 µg/mL (≈ 22.8 µM), the “inhibition zone (IZ)” value (Bacillus subtilis [8]) was “inactive” and the MIC (Trichoderma reesei [9]) was “inactive”. For the same compound, the “inhibition zone (IZ)” value (Trichoderma reesei [10]) was “inactive”, the zone of inhibition at 100 µg/mL (Escherichia coli [11]) was 14 mm and the viability at 72 h, 100 ug/ml [12] was 79.5%. For the same compound, the viability at 72 h, 250 ug/ml [13] was 73.7%, the MIC (Fusarium oxysporum [15]) was 12.5 µg/mL (≈ 45.6 µM) and the MIC (Escherichia coli [16]) was 50 µg/mL (≈ 182 µM). For the same compound, the MIC (Talaromyces funiculosus [17]) was “inactive”, the zone of inhibition at 100 µg/mL (Streptomyces griseus [18]) was 22 mm and the MIC (Staphylococcus aureus [19]) was 100 µg/mL (≈ 365 µM). For the same compound, the “inhibition zone (IZ)” value (Talaromyces funiculosus [20]) was “inactive” and the MIC (Bacillus subtilis [21]) was “inactive”.

With `O=C1Oc2cc([N+](=O)[O-])ccc2N/C1=C\C(=O)c1cccc2ccccc12` the zone of inhibition at 100 µg/mL (Fusarium oxysporum [1]) was 18 mm, the MIC (Aspergillus niger [2]) was “inactive” and the viability at 72 h, 25 ug/ml [3] was 93.5%. The “inhibition zone (IZ)” value (Aspergillus niger [4]) was “inactive”, the viability at 72 h, 50 ug/ml [5] was 88.9% and the zone of inhibition at 100 µg/mL (Staphylococcus aureus [6]) was 8 mm. For the same compound, the MIC (Streptomyces griseus [7]) was “inactive”, the “inhibition zone (IZ)” value (Bacillus subtilis [8]) was “inactive” and the MIC (Trichoderma reesei [9]; ATCC 13631, 24 h) was 25 µg/mL (≈ 69.4 µM). It also gave a zone of inhibition at 100 µg/mL (Trichoderma reesei [10]) of 18 mm, a zone of inhibition at 100 µg/mL (Escherichia coli [11]) of 26 mm and a viability at 72 h, 100 ug/ml [12] of 83%. The viability at 72 h, 250 ug/ml [13] was 76.3%, the MIC (Fusarium oxysporum [15]) was 25 µg/mL (≈ 69.4 µM) and the MIC (Escherichia coli [16]) was 12.5 µg/mL (≈ 34.7 µM). The MIC (Talaromyces funiculosus [17]; ATCC 11797, 24 h) was 25 µg/mL (≈ 69.4 µM), the “inhibition zone (IZ)” value (Streptomyces griseus [18]) was “inactive” and the MIC (Staphylococcus aureus [19]) was 100 µg/mL (≈ 278 µM). For the same compound, the zone of inhibition at 100 µg/mL (Talaromyces funiculosus [20]) was 20 mm and the MIC (Bacillus subtilis [21]) was “inactive”.
